According to US20020103377A1, “Piperidinyloxy and pyrrolidinyloxy oxazolidinone antibacterials” (priority 1999, published 2002):
Values after ≈ are worked out from the molar mass of the structure shown.

Columns and labels:
S. aureus = test: MIC by microdilution broth method (NCCLS), S. aureus Broth; format: cell-based; settings: Staphylococcus aureus, cation adjusted Mueller-Hinton broth, 35° C., 16-20 hours, read-out: MIC (μg/mL) S. aureus Broth
Method: (§1) Minimal inhibitory concentration (MIC) has been an indicator of in vitro antibacterial activity widely used in the art. The in vitro antimicrobial activity of the compounds was determined by the microdilution broth method following the test method from the National Committee for Laboratory Standards (NCCLS). This method is described in the NCCLS Document M7-A4, Vol. 17, No.2, “Methods for Dilution Antimicrobial Susceptibility Test for Bacteria that Grow Aerobically-Fourth Edition”, which is incorporated herein by reference.
(§2) In this method two-fold serial dilutions of drug in cation adjusted Mueller-Hinton broth are added to wells in microdilution trays. The test organisms are prepared by adjusting the turbidity of actively growing broth cultures so that the final concentration of test organism after it is added to the wells is approximately 5×10^4 CFU/well.
(§3) Following inoculation of the microdilution trays, the trays are incubated at 35° C. for 16-20 hours and then read. […] The amount of growth in the wells containing the test compound is compared with the amount of growth in the growth-control wells (no test compound) used in each tray. As set forth in Table 1, compounds of the present invention were tested against a variety of Gram positive and Gram negative pathogenic bacteria resulting in a range of activities, from 1 to ≧128 μg/mL depending on the organism tested.

E. faecium OC3312 = test: MIC by microdilution broth method (NCCLS), E. faecium OC3312; format: cell-based; settings: Enterococcus faecium, OC3312, microdilution broth, cation adjusted Mueller-Hinton broth, 35° C., 16-20 hours; read-out: MIC (μg/mL) E. faecium OC3312
Method: as §1, §2, §3

MRSA OC 2878 = test: MIC by microdilution broth method (NCCLS), MRSA OC 2878; format: cell-based, Staphylococcus aureus; settings: Staphylococcus aureus, MRSA, cation adjusted Mueller-Hinton broth, 35° C., 16-20 hours, read-out: MIC (μg/mL) MRSA OC 2878
Method: as §1, §2, §3

SMILES | melting point [°C] | MIC (S. aureus) [µg/mL] | MIC (E. faecium OC3312) [µg/mL] | MIC (MRSA OC 2878) [µg/mL]
CC(=O)NC[C@H]1CN(c2ccc(OC3CCN(C(=O)c4cccs4)CC3)c(F)c2)C(=O)O1 [Compound 22, (S)-N-[[3-[3-Fluoro-4-{N-(2-thienylcarbonyl)piperidinyl-4-oxy}phenyl]-2-oxo-5-oxazolidinyl]methyl]acetamide] | 48 to 51 | 8 (≈ 17.3 µM) | 8 (≈ 17.3 µM) | 4 (≈ 8.67 µM)
CC(=O)NC[C@H]1CN(c2ccc(OC3CCN(C(=O)c4ccc(C#N)cc4)CC3)c(F)c2)C(=O)O1 [Compound 11, (S)-N-[[3-[3-Fluoro-4-{N-(4-cyanobenzoyl)piperidinyl-4-oxy}phenyl]-2-oxo-5-oxazolidinyl]methyl]acetamide] | 75 to 78 | 16 (≈ 33.3 µM) | 16 (≈ 33.3 µM) | 8 (≈ 16.6 µM)
CC(=O)NC[C@H]1CN(c2ccc(OC3CCN(C(=O)COCc4ccccc4)C3)c(F)c2)C(=O)O1 (stereo partly drawn) [Compound 39, (S)-N-[[3-[3-Fluoro-4-{N-(benzyloxyacetyl)pyrrolidinyl-3-oxy}phenyl]-2-oxo-5-oxazolidinyl]methyl]acetamide] | 53 to 55 | 16 (≈ 33 µM) | 16 (≈ 33 µM) | 16 (≈ 33 µM)
CC(=O)NC[C@H]1CN(c2ccc(OC3CCN(C(=O)OC(C)(C)C)CC3)nc2)C(=O)O1 [Compound 41, (5S)-3-[6-{N-(t-Butoxycarbonyl)piperidinyl-4-oxy}-pyridin-3-yl]-5-methylacetamide-oxazolidin-2-one] | 99 to 101 | 128 (≈ 295 µM) | > 128 | 64 (≈ 147 µM)
CC(=O)NC[C@H]1CN(c2ccc(OC3CCN(S(C)(=O)=O)CC3)nc2)C(=O)O1 [Compound 44, (5S)-3-[6-{N-(Methanesulfonyl)piperidinyl-4-oxy}-pyridin-3-yl]-5-methylacetamide-oxazolidin-2-one] | 175 to 176 | 32 (≈ 77.6 µM) | 128 (≈ 310 µM) | 64 (≈ 155 µM)
CC(=O)NC[C@H]1CN(c2ccc(OC3CCN(S(C)(=O)=O)CC3)c(F)c2)C(=O)O1 [Compound 6, (S)-N-[[3-[3-Fluoro-4-{N-(methanesulfonyl)piperidinyl-4-oxy}phenyl]-2-oxo-5-oxazolidinyl]methyl]acetamide] | 123 to 125 | 4 (≈ 9.31 µM) | 8 (≈ 18.6 µM) | 4 (≈ 9.31 µM)
CC(=O)NC[C@H]1CN(c2ccc(OC3CCN(c4ncccn4)CC3)c(F)c2)C(=O)O1 [Compound 9, (S)-N-[[3-[3-Fluoro-4-{N-(2-pyrimidinyl)piperidinyl-4-oxy}phenyl]-2-oxo-5-oxazolidinyl]methyl]acetamide] | 121 to 123 | 4 (≈ 9.31 µM) | 8 (≈ 18.6 µM) | 4 (≈ 9.31 µM)
CC(=O)NC[C@H]1CN(c2ccc(OC3CCN(C(=O)CN)CC3)c(F)c2)C(=O)O1 [Compound 16] | 142 to 146 | 32 (≈ 78.3 µM) | 32 (≈ 78.3 µM) | 32 (≈ 78.3 µM)
CC(=O)NC[C@H]1CN(c2ccc(OC3CCCN(C(=O)OC(C)(C)C)C3)c(F)c2)C(=O)O1 (stereo partly drawn) [Compound 34, (S)-N-[[3-[3-Fluoro-4-{N-(t-butoxycarbonyl)piperidinyl-3-oxy}phenyl]-2-oxo-5-oxazolidinyl]methyl]acetamide] | 60 to 63 | 128 (≈ 284 µM) | > 128 | 64 (≈ 142 µM)
CC(=O)NC[C@H]1CN(c2ccc(OC3CN(C(=O)CO)C3)c(F)c2)C(=O)O1 [Compound 61, (S)-N-[[3-[3-Fluoro-4-{N-(α-hydroxyacetyl)azetidinyl-3-oxy}phenyl]-2-oxo-5-oxazolidinyl]methyl]acetamide] | 158 to 160 | 32 (≈ 83.9 µM) | 128 (≈ 336 µM) | 64 (≈ 168 µM)
CC(=O)NC[C@H]1CN(c2ccc(OC3CCN(C(=O)CO)C3)c(F)c2)C(=O)O1 (stereo partly drawn) [Compound 40, (S)-N-[[3-[3-Fluoro-4-{N-(α-hydroxyacetyl)pyrrolidinyl-3-oxy}phenyl]-2-oxo-5-oxazolidinyl]methyl]acetamide] | 97 to 99 | 4 (≈ 10.1 µM) | 16 (≈ 40.5 µM) | 8 (≈ 20.2 µM)
CC(=O)NC[C@H]1CN(c2ccc(OC3CCNCC3)c(F)c2)C(=O)O1 [Compound 2, (S)-N-[[3-[3-Fluoro-4-{piperidinyl-4-oxy}phenyl]-2-oxo-5-oxazolidinyl]methyl]acetamide] | 55 to 59 | 8 (≈ 22.8 µM) | 8 (≈ 22.8 µM) | 32 (≈ 91.1 µM)
CC(=O)NC[C@H]1CN(c2ccc(OC3CCN(C(=O)c4ccccn4)CC3)c(F)c2)C(=O)O1 [Compound 20, (S)-N-[[3-[3-Fluoro-4-{N-(2-pyridoyl)piperidinyl-4-oxy}phenyl]-2-oxo-5-oxazolidinyl]methyl]acetamide] | 55 to 58 | 8 (≈ 17.5 µM) | 16 (≈ 35.1 µM) | 8 (≈ 17.5 µM)
CC(=O)NC[C@H]1CN(c2ccc(OC3CCCN(c4ncccn4)C3)c(F)c2)C(=O)O1 (stereo partly drawn) [Compound 38, (S)-N-[[3-[3-Fluoro-4-{N-(2-pyrimidinyl)piperidinyl-3-oxy}phenyl]-2-oxo-5-oxazolidinyl]methyl]acetamide] | 130 to 131 | 16 (≈ 37.3 µM) | 32 (≈ 74.5 µM) | 8 (≈ 18.6 µM)
CC(=O)NC[C@H]1CN(c2ccc(OC3CCN(C(=O)N4CCOCC4)CC3)c(F)c2)C(=O)O1 [Compound 25, (S)-N-[[3-[3-Fluoro-4-{N-(4-morpholinocarbamoyl)piperidinyl-4-oxy}phenyl]-2-oxo-5-oxazolidinyl]methyl]acetamide] | 167 to 170 | 32 (≈ 68.9 µM) | 64 (≈ 138 µM) | 32 (≈ 68.9 µM)
CC(=O)NC[C@H]1CN(c2ccc(OC3CCN(C(=O)c4cccc(C#N)c4)CC3)c(F)c2)C(=O)O1 [Compound 12, (S)-N-[[3-[3-Fluoro-4-{N-(3-cyanobenzoyl)piperidinyl-4-oxy}phenyl]-2-oxo-5-oxazolidinyl]methyl]acetamide] | 82 to 85 | 8 (≈ 16.6 µM) | 16 (≈ 33.3 µM) | 8 (≈ 16.6 µM)
CC(=O)NC[C@H]1CN(c2ccc(OC3CCN(C(=O)OC(C)(C)C)CC3)c(F)c2)C(=O)O1 [Compound 1, (S)-N-[[3-[3-Fluoro-4-{N-(t-butoxycarbonyl)piperidinyl-4-oxy}phenyl]-2-oxo-5-oxazolidinyl]methyl]acetamide] | 179 to 180 | 32 (≈ 70.9 µM) | > 32 | 16 (≈ 35.4 µM)
CC(=O)NC[C@H]1CN(c2ccc(OC3CCN(c4ccc(C#N)cn4)CC3)c(F)c2)C(=O)O1 [Compound 14, (S)-N-[[3-[3-Fluoro-4-{N-(5-cyano-2-pyridyl)piperidinyl-4-oxy}phenyl]-2-oxo-5-oxazolidinyl]methyl]acetamide] | 78 to 84 | 4 (≈ 8.82 µM) | 8 (≈ 17.6 µM) | 4 (≈ 8.82 µM)
CC(=O)NC[C@H]1CN(c2ccc(OC3CCN(C(=O)COC(C)=O)CC3)c(F)c2)C(=O)O1 [Compound 53, (S)-N-[[3-[3-Fluoro-4-{N-(acetoxyacetyl)piperidinyl-4-oxy}phenyl]-2-oxo-5-oxazolidinyl]methyl]acetamide] | 146 to 147.5 | 8 (≈ 17.7 µM) | 16 (≈ 35.4 µM) | 8 (≈ 17.7 µM)
CC(=O)NC[C@H]1CN(c2ccc(OC3CCN(C(=O)CCCc4cccnc4)CC3)c(F)c2)C(=O)O1 [Compound 26, (S)-N-[[3-[3-Fluoro-4-{N-(4-pyridin-3-yl-butyryl)piperidinyl-4-oxy}phenyl]-2-oxo-5-oxazolidinyl]methyl]acetamide] | 42 to 45 | 16 (≈ 32.1 µM) | 16 (≈ 32.1 µM) | 8 (≈ 16 µM)
CC(=O)NC[C@H]1CN(c2ccc(OC3CCN(C(=O)N(C)C)CC3)c(F)c2)C(=O)O1 [Compound 24, (S)-N-[[3-[3-Fluoro-4-{N-(dimethylcarbamoyl)piperidinyl-4-oxy}phenyl]-2-oxo-5-oxazolidinyl]methyl]acetamide] | 129 to 131 | 8 (≈ 18.9 µM) | 32 (≈ 75.7 µM) | 16 (≈ 37.9 µM)
CC(=O)NC[C@H]1CN(c2ccc(OC3CCN(C(=O)c4cccnc4)CC3)c(F)c2)C(=O)O1 [Compound 19, (S)-N-[[3-[3-Fluoro-4-{N-(3-pyridoyl)piperidinyl-4-oxy}phenyl]-2-oxo-5-oxazolidinyl]methyl]acetamide] | 49 to 53 | 16 (≈ 35.1 µM) | 32 (≈ 70.1 µM) | 32 (≈ 70.1 µM)
CC(=O)NC[C@H]1CN(c2ccc(OC3CCN(C(=O)CNS(C)(=O)=O)CC3)c(F)c2)C(=O)O1 [Compound 17, (S)-N-[[3-[3-Fluoro-4-{N-(α-methylsulfonylaminoacetyl)piperidinyl-4-oxy}phenyl]-2-oxo-5-oxazolidinyl]methyl]acetamide] | 78 to 82 | 8 (≈ 16.4 µM) | 16 (≈ 32.9 µM) | 16 (≈ 32.9 µM)
